# Measurements as given in PubChem BioAssay AID248 (DTP/NCI, 2004).
# Values joined by “and” are separate entries in the source; they are usually repeats but may differ in a detail not shown here. Equal values may be shown once. Toxic doses and inconclusive results are not listed.
# System: L1210 leukemia ip in BDF1 mice, survival T/C
# Assay: NCI In Vivo Anticancer Drug Screen. Data for tumor model L1210 Leukemia (intraperitoneal) in B6D2F1 (BDF1) mice
# Details: endpoint: mean survival time, higher = longer survival
# Summary of the method: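 Transplanted-tumor mice were given test agent; controls received vehicle only. Survival readings from the two groups were divided (treated over control).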
# [1] = dose: 100.0 mg/kg/injection, schedule: Q01DX001 (ip), vehicle: saline
# [2] = dose: 200.0 mg/kg/injection, schedule: Q01DX001 (ip), vehicle: saline
# [3] = dose: 400.0 mg/kg/injection, schedule: Q01DX001 (ip), vehicle: saline
# [4] = dose: 100.0 mg/kg/injection, schedule: Q01DX001 (ip), vehicle: Klucel (hydroxypropylcellulose) (HPC)
# [5] = dose: 100.0 mg/kg/injection, schedule: Q04DX003 (ip), vehicle: Klucel (hydroxypropylcellulose) (HPC)
# [6] = dose: 200.0 mg/kg/injection, schedule: Q01DX001 (ip), vehicle: Klucel (hydroxypropylcellulose) (HPC)
# [7] = dose: 200.0 mg/kg/injection, schedule: Q04DX003 (ip), vehicle: Klucel (hydroxypropylcellulose) (HPC)
# [8] = dose: 400.0 mg/kg/injection, schedule: Q01DX001 (ip), vehicle: Klucel (hydroxypropylcellulose) (HPC)
# [9] = dose: 400.0 mg/kg/injection, schedule: Q04DX003 (ip), vehicle: Klucel (hydroxypropylcellulose) (HPC)
# [10] = dose: 50.0 mg/kg/injection, schedule: Q01DX001 (ip), vehicle: saline
# [11] = dose: 50.0 mg/kg/injection, schedule: Q01DX001 (ip), vehicle: carboxymethylcellulose (CMC)
# [12] = dose: 100.0 mg/kg/injection, schedule: Q01DX001 (ip), vehicle: carboxymethylcellulose (CMC)
# [13] = dose: 200.0 mg/kg/injection, schedule: Q01DX001 (ip), vehicle: carboxymethylcellulose (CMC)
# [14] = dose: 400.0 mg/kg/injection, schedule: Q01DX001 (ip), vehicle: carboxymethylcellulose (CMC)
# [15] = dose: 100.0 mg/kg/injection, schedule: Q04DX002 (ip), vehicle: Klucel (hydroxypropylcellulose) (HPC)
# [16] = dose: 200.0 mg/kg/injection, schedule: Q04DX002 (ip), vehicle: Klucel (hydroxypropylcellulose) (HPC)
# [17] = dose: 400.0 mg/kg/injection, schedule: Q04DX002 (ip), vehicle: Klucel (hydroxypropylcellulose) (HPC)
# [18] = dose: 50.0 mg/kg/injection, schedule: Q01DX009 (ip), vehicle: Klucel (hydroxypropylcellulose) (HPC)
compound,measurement,setting,value
O=C1/C(=C\c2ccccc2)C(Br)c2ccccc21 (configuration not stated),T/C,"dose: 12.5 mg/kg/injection, schedule: Q01DX009 (ip), vehicle: water",95 % of control
same,T/C,"dose: 12.5 mg/kg/injection, schedule: Q04DX003 (ip), vehicle: water",100 % of control
same,T/C,"dose: 25.0 mg/kg/injection, schedule: Q01DX009 (ip), vehicle: water",97 % of control
same,T/C,"dose: 25.0 mg/kg/injection, schedule: Q04DX003 (ip), vehicle: water",91 % of control
same,T/C,"dose: 50.0 mg/kg/injection, schedule: Q01DX009 (ip), vehicle: water",100 % of control
same,T/C,"dose: 50.0 mg/kg/injection, schedule: Q04DX003 (ip), vehicle: water",92 % of control
CN(N=O)C(=O)NC(=O)N(C)N=O,T/C,"dose: 18.0 mg/kg/injection, schedule: Q01DX Z (ip), vehicle: carboxymethylcellulose (CMC)",155 % of control
same,T/C,"dose: 27.5 mg/kg/injection, schedule: Q01DX001 (ip), vehicle: carboxymethylcellulose (CMC)",110 % of control
same,T/C,"dose: 54.0 mg/kg/injection, schedule: Q01DX001 (ip), vehicle: carboxymethylcellulose (CMC)",118 % of control
same,T/C,"dose: 75.0 mg/kg/injection, schedule: Q01DX Z (ip), vehicle: carboxymethylcellulose (CMC)",87 % of control
same,T/C,"dose: 108.0 mg/kg/injection, schedule: Q01DX001 (ip), vehicle: carboxymethylcellulose (CMC)",86 % of control
Cc1cccc(Sc2cccc3c2C(C)(O)c2c(Sc4cccc(C)c4)cccc2C3(C)O)c1 (configuration not stated),T/C,"dose: 100.0 mg/kg/injection, schedule: Q04DX003 (ip), vehicle: saline with Tween-80",96 % of control
same,T/C,"dose: 200.0 mg/kg/injection, schedule: Q04DX003 (ip), vehicle: saline with Tween-80",95 % of control
same,T/C,"dose: 400.0 mg/kg/injection, schedule: Q04DX003 (ip), vehicle: saline with Tween-80",96 % of control
O=C1Nc2ccccc2CS1,T/C,[1],100 % of control
same,T/C,[2],97 % of control
same,T/C,[3],94 % of control
CC(C)Nc1ccc(C(=O)O)cc1,T/C,[4],100 % of control
same,T/C,[5],98 % of control
same,T/C,[6],91 % of control
same,T/C,[7],100 % of control
same,T/C,[8],102 % of control
same,T/C,[9],100 % of control
COc1ccc(/C=C(\SS/C(=C/c2ccc(OC)cc2)C(=O)O)C(=O)O)cc1,T/C,[1],89 % of control
same,T/C,[2],94 % of control
COc1ccc2nccc(C(=O)CCC3CCN(C(=O)c4ccc([N+](=O)[O-])cc4)CC3C(CBr)CCBr)c2c1 (configuration not stated),T/C,"dose: 100.0 mg/kg/injection, schedule: Q01DX001 (ip), vehicle: other",104 % of control
same,T/C,"dose: 200.0 mg/kg/injection, schedule: Q01DX001 (ip), vehicle: other",88 % of control
same,T/C,"dose: 400.0 mg/kg/injection, schedule: Q01DX001 (ip), vehicle: other",111 % of control
Cc1cc2nc3c(N)ccc(N)c3nc2cc1N,T/C,"dose: 100.0 mg/kg/injection, schedule: Q04DX002 (ip), vehicle: saline with Tween-80",97 % of control
same,T/C,"dose: 200.0 mg/kg/injection, schedule: Q04DX002 (ip), vehicle: saline with Tween-80",97 % of control
same,T/C,"dose: 400.0 mg/kg/injection, schedule: Q04DX002 (ip), vehicle: saline with Tween-80",105 % of control
Cc1cc(N)c(C(=O)NN)cc1C,T/C,[1],96 % of control
same,T/C,[2],93 % of control
same,T/C,[3],113 % of control
CC1C=C2C(=O)C=C3OCOC34Oc3cc5c(cc3C(C1C)C24)OCO5 (configuration not stated),T/C,[5],94 % of control
same,T/C,[7],97 % of control
same,T/C,[9],97 % of control
CC(=O)NCCOc1ccc([N+](=O)[O-])cc1,T/C,[4],102 % of control
same,T/C,[6],102 % of control
same,T/C,[8],102 % of control
O=C(O)CN(CC(=O)O)c1ccccc1,T/C,[10],103 % of control
same,T/C,[1],92 % of control
same,T/C,[2],103 % of control
same,T/C,[3],95 % of control
O=COC1CC2CC1c1ccccc12 (configuration not stated),T/C,[10],105 % of control
same,T/C,[1],105 % of control
same,T/C,[2],105 % of control
same,T/C,[3],105 % of control
c1ccc(C(NC2CC3CCC2C3)c2ccccc2)cc1 (configuration not stated),T/C,"dose: 50.0 mg/kg/injection, schedule: Q01DX009 (ip), vehicle: saline sonified",101 % of control
same,T/C,[4],109 % of control
same,T/C,"dose: 100.0 mg/kg/injection, schedule: Q01DX009 (ip), vehicle: saline sonified",95 % of control
same,T/C,[6],95 % of control
same,T/C,"dose: 200.0 mg/kg/injection, schedule: Q01DX009 (ip), vehicle: saline sonified",100 % of control
N#CSCc1cc([N+](=O)[O-])c(CSC#N)c([N+](=O)[O-])c1Cl,T/C,"dose: 25.0 mg/kg/injection, schedule: Q01DX009 (ip), vehicle: other",89 % of control
same,T/C,"dose: 100.0 mg/kg/injection, schedule: Q04DX003 (ip), vehicle: carboxymethylcellulose (CMC)",87 % of control
same,T/C,"dose: 200.0 mg/kg/injection, schedule: Q04DX003 (ip), vehicle: carboxymethylcellulose (CMC)",93 % of control
Cc1cc(C)n2ncnc2n1,T/C,"dose: 100.0 mg/kg/injection, schedule: Q01DX009 (ip), vehicle: saline with Tween-80",105 % of control
same,T/C,"dose: 200.0 mg/kg/injection, schedule: Q01DX009 (ip), vehicle: saline with Tween-80",99 % of control
COC(=O)/C=C(\C)Sc1ccc(Cl)cc1,T/C,"dose: 100.0 mg/kg/injection, schedule: Q04DX002 (ip), vehicle: other",91 % of control
same,T/C,"dose: 200.0 mg/kg/injection, schedule: Q04DX002 (ip), vehicle: other",98 % of control
same,T/C,"dose: 400.0 mg/kg/injection, schedule: Q04DX002 (ip), vehicle: other",102 % of control
Cc1ccc(S(=O)(=O)OCCN(CCOS(=O)(=O)c2ccc(C)cc2)c2cccc(Cl)c2)cc1,T/C,[11],98 % of control
same,T/C,[12],98 % of control
same,T/C,[13],109 % of control
same,T/C,[14],114 % of control
CC1(CO)COC(c2ccccc2)=N1 (configuration not stated),T/C,"dose: 100.0 mg/kg/injection, schedule: Q01DX009 (ip), vehicle: other",109 % of control
same,T/C,"dose: 200.0 mg/kg/injection, schedule: Q01DX009 (ip), vehicle: other",103 % of control
same,T/C,"dose: 400.0 mg/kg/injection, schedule: Q01DX009 (ip), vehicle: other",109 % of control
O=C(O)c1cccc2nc3ccccc3nc12,T/C,[15],100 % of control
same,T/C,[16],102 % of control
same,T/C,[17],96 % of control
O=C(O)C1CCC1C(=O)O (configuration not stated),T/C,"dose: 100.0 mg/kg/injection, schedule: Q04DX002 (ip), vehicle: saline",90 % of control
same,T/C,"dose: 200.0 mg/kg/injection, schedule: Q04DX002 (ip), vehicle: saline",90 % of control
same,T/C,"dose: 400.0 mg/kg/injection, schedule: Q04DX002 (ip), vehicle: saline",87 % of control
CCOc1ccc(Cl)cc1C1N(Cc2ccccc2OC)CCCN1Cc1ccccc1OC,T/C,[12],87 % of control
same,T/C,[13],93 % of control
same,T/C,[14],91 % of control
COc1ccc(-c2cc3c(OC)ccc(OC)c3[nH]2)cc1,T/C,[15],93 % of control
same,T/C,[16],102 % of control
same,T/C,[17],93 % of control
Nc1[nH]c(=O)ncc1-c1cccc(Cl)c1,T/C,"dose: 12.5 mg/kg/injection, schedule: Q01DX009 (ip), vehicle: Klucel (hydroxypropylcellulose) (HPC)",103 % of control
same,T/C,"dose: 25.0 mg/kg/injection, schedule: Q01DX009 (ip), vehicle: Klucel (hydroxypropylcellulose) (HPC)",95 % of control
same,T/C,[18],100 % of control and 103 % of control
N\C([S-])=N/N=C\C(=N/N=C(\N)[S-])C(O)C(O)C(O)CO.[Pd+2] (configuration not stated),T/C,"dose: 100.0 mg/kg/injection, schedule: Q04DX003 (ip), vehicle: saline",93 % of control
same,T/C,"dose: 200.0 mg/kg/injection, schedule: Q04DX003 (ip), vehicle: saline",91 % of control
NC(=O)C1(Nc2ccc(-c3ccc(Br)cc3)cc2)CCCC1,T/C,[11],95 % of control
same,T/C,[12],86 % of control
same,T/C,[14],86 % of control
Nc1ccc(F)cc1[N+](=O)[O-],T/C,[18],106 % of control
same,T/C,"dose: 100.0 mg/kg/injection, schedule: Q01DX009 (ip), vehicle: Klucel (hydroxypropylcellulose) (HPC)",93 % of control
same,T/C,[5],105 % of control
same,T/C,"dose: 200.0 mg/kg/injection, schedule: Q01DX009 (ip), vehicle: Klucel (hydroxypropylcellulose) (HPC)",95 % of control
same,T/C,[7],94 % of control
same,T/C,"dose: 400.0 mg/kg/injection, schedule: Q01DX009 (ip), vehicle: Klucel (hydroxypropylcellulose) (HPC)",90 % of control
same,T/C,[9],91 % of control
Cc1c(O)cc(O)cc1O,T/C,[1],96 % of control
same,T/C,[2],98 % of control
